Laboratory results published in US6972287B1, “Method of inhibiting amyloid protein aggregation and imaging amyloid deposits” (Pfizer Inc., priority 1999, dated 2005).
Values joined by “and” are separate entries in the source; they are usually repeats but may differ in a detail not shown here. Equal entries are not always repeated.

What was measured:
Format in all cases: biochemical
[1] = biological target: T1, Aβ(1-40) (Homo sapiens, UniProt P05067); assay: BASSR (Beta-Amyloid Self-Seeding Radioassay), inhibitors of self-seeded amyloid fibril growth
T1 construct: […]; purchased Bachem, Torrance, Calif
T1 sequence (P05067 672-711 limits assumed): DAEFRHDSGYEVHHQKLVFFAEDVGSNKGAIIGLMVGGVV
Experimental: BASSR (Beta-Amyloid Self-Seeding Radioassay)
(§1) An assay for inhibitors of self-seeded amyloid fibril growth
Assay Buffer—50 mM sodium phosphate, pH 7.5, 100 mM NaCl, 0.02% NaN3, 1 M urea (filter and store at 4° C.).
(§2) Typically, the solution should be stored until no lag phase is seen in the assay.
^125I-labeled Aβ(1-40)—150K-350K cpm/μL in 100% acetonitrile—0.1% trifluoroacetic acid (TFA)—1% β-mercaptoethanol (aliquots stored at −20° C.). ^125I-labeled Aβ(1-40) can be made in accordance with the procedure set forth by H. LeVine, III in Neurobiol. Aging, 16, 755, (1995), which is hereby incorporated by reference, or this reagent may be purchased from Amersham, Arlington Heights, Ill.
The following are the amounts of the components of the reaction mixture sufficient for 50 assay wells:
• 1) Prepare reaction mixture above by mixing components and storing on ice. • 2) Pipet 14.5 μL of reaction mixture into each of 50 wells on a polypropylene U-bottom 96-well microtiter plate on ice. (Costar 3794). • 3) Add 1.7 μL of diluted compound to be tested to each well in a column of eight, including solvent control. Serial 3-fold dilutions from 1 mM (100 μM final) in assay buffer−urea=7 dilutions+zero. Each 96-well plate can therefore accommodate 11 samples+1 Congo Red control (0.039-5 μM final in 2-fold steps). • 4) Seal the plate with aluminum film (Beckman 538619) and incubate for 10 minutes on ice. • 5) Raise the temperature to 37° C. and incubate for 3 to 5 hours (depending on the lot of the peptide). • 6) Remove the aluminum film and add 200 μL/well of ice cold assay buffer with urea, collecting the radiolabeled fibrils by vacuum filtration through 0.2 μm pore size GVWP filters in 96-well plates (Millipore MAGV N22, Bedford, Mass.). Determine the radioactivity of the filters using standard methods well-known to those skilled in the art. BASST (Beta-Amyloid Self-Seeding, Thioflavin T)

[2] = biological target: T1, Aβ(1-40); assay: BASST (Beta-Amyloid Self-Seeding, Thioflavin T), inhibitors of self-seeded amyloid fibril growth; settings: read-out: BASST (IC50 = μM)
Experimental: as §1
Assay Buffer—50 mM sodium phosphate, pH 7.5, 100 mM NaCl, 0.02% NaN3, 1 M urea (filter and store at 4° C.)
as §2
The following are the amounts of the components of the reaction mixture that result in each of the 50 assay wells:
• 1) Prepare the reaction mix above by mixing the components and storing on ice. • 2) Pipet 14.5 μL of reaction mixture into each of 50 wells of a polystyrene U-bottom 96-well microtiter plate (Corning 25881-96) on ice. • 3) Add 1.7 μL of diluted compound to be tested to each well in a column of eight, including solvent control. Serial 3-fold dilutions from 1 mM (100 μM final) in assay buffer−urea=7 dilutions+zero. Each 96-well plate can therefore accommodate 11 samples+1 Congo Red control (0.039-5 μM final in 2-fold steps). • 4) Seal the plate with aluminum film and incubate for 10 minutes on ice. • 5) Raise the temperature to 37° C. and incubate for 3 to 5 hours (depends on the lot of the peptide). • 6) Remove the aluminum film and add 250 μL/well of 5 μM thioflavin T (ThT) [T-3516, Sigma-Aldrich] in 50 mM glycine-NaOH, pH 8.5. Read fluorescence on a plate reader (ex=440 nm/20 nm; em=485 nm/20 nm) within 5 minutes. BAPA (Beta-Amyloid Peptide Aggregation)

[3] = biological target: T2, Aβ (1-40) peptide (Homo sapiens, UniProt P05067); assay: BAPA (Beta-Amyloid Peptide Aggregation, pH 6.0, filtration); settings: Aβ (1-40) 33 μM, pH 6.0, 2 to 4 hours at room temperature; replicate values; letter = synthetic lot
T2 construct: 10 μL 0.5 mg/mL Aβ (1-40) peptide in 20% HFIP
T2 sequence (P05067 672-711 limits assumed): as above
Experimental: Each 96-well plate can therefore accommodate 11 samples+1 Congo Red control (0.039-5 μM final in 2-fold steps). • 4) Seal the plate with aluminum film and incubate for 10 minutes on ice. • 5) Raise the temperature to 37° C. and incubate for 3 to 5 hours (depends on the lot of the peptide). • 6) Remove the aluminum film and add 250 μL/well of 5 μM thioflavin T (ThT) [T-3516, Sigma-Aldrich] in 50 mM glycine-NaOH, pH 8.5. […] The purpose of this assays is to provide a higher volume method of assaying the amount of beta amyloid aggregation using an endpoint assay based on filtration. In this assay, hexafluoroisopropanol (HFIP) is used to break down the initial amyloid peptide to a monomer state and use a concentration of 33 μM which is high enough so that aggregation will occur at pH 6.0 in several hours. Methods: […] Then, we incubate for 2 to 4 hours at room temperature. […] We wash the filter plate with 100 μL of the same phosphate buffer. Aggregation was detected on a Microbeta counter after impregnating the filters with Meltilex (1450-441) and is corrected for background.

[4] = biological target: T3, Aβ (1-42) (Homo sapiens, UniProt P05067); assay: BATYM assay (Aβ (1-42) aggregation, Thioflavin T fluorescence); settings: Aβ 1-42 final concentration 100 μM, 37° C., 1 day, letter = synthetic lot
T3 construct: Required Aβ (1-42) (California Peptide) was dried from its hexafluoroisopropanol (HFIP) stock solution; purchased California Peptide
T3 sequence (P05067 672-713 limits assumed): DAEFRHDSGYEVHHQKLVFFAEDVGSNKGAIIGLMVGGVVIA
Experimental: Required Aβ (1-42) (California Peptide) was dried from its hexafluoroisopropanol (HFIP) stock solution. The Aβ (1-42) was dissolved in dimethylsulfoxide (DMSO) and then mixed with phosphate buffered saline (PBS) (pH 7.4). The mixed Aβ (1-42) solution was filtered with a 0.2 μm Omnipore membrane syringe filter Millipore, Bedford, Mass.). The compound to be tested in DMSO (50 times concentrate) was put into each well (0.5 μL/well) of a 96-well plate. The Aβ (1-42) solution was added into each well (24.5 μL/well). The plate was centrifuged at 1,000 g for 5 minutes and incubated at 37° C. for 1 day (Aβ 1-42; final concentration 100 μM).
After incubation Thioflavin T (ThT) (30 μM) solution in glycine-NaOH buffer (pH 8.5, 50 mM) was added into each well (250 μL/well), fluorescence was measured (ex=440/20 nm, em=485/20 nm) using a fluorescence plate reader. The inhibitory activity was calculated as the reduction of fluorescence with the following formula: Inhibition (%)={(F(Aβ)−F(Aβ+compound)}/{F(Aβ)−[…]}×100
The IC50s were calculated by a curve fitting program using the following equation. The data were obtained from two different experiments in triplicate.
x=Concentration of tested compound (M),

[5] = 30 μM soluble Aβ(1-40) + 125I-labeled Aβ(1-40), 37° C., 3 to 5 hours, replicate values, letter = synthetic lot, ppt = precipitate, V-shaped = inhibition followed by precipitation
[6] = 30 μM soluble Aβ(1-40), 37° C., 3 to 5 hours, thioflavin T fluorescence, replicate values, letter = synthetic lot

| Compound | IC50 [3] | IC50 [1, 5] | IC50 [4] [µM] | IC50 [2, 6] [µM] | IC50 [1] [µM] | IC50 [2] |
| --- | --- | --- | --- | --- | --- | --- |
| 2-{4-[2-(3,4-Dichloro-phenyl)-ethyl]-phenylamino}-benzoate-2-hydroxy-1,1-bis hydroxymethyl-ethyl-ammonium [Example 120] | > 60 µM |  |  |  | > 100 | 3 µM |
| O=C(O)c1cc([N+](=O)[O-])c(-n2ccnc2)cc1Nc1ccc(CCCc2ccc(Cl)c(Cl)c2)cc1 [Example 8] |  | 15 µM (3×) and 18 µM | 7.17 |  |  |  |
| Cc1cc(-c2cc(Cl)cc(Cl)c2)ccc1Nc1ccccc1C(=O)O [Example 83, 2-(3′,5′-Dichloro-3-methyl-biphenyl-4-ylamino)-benzoic acid] | 9 µM and 47 µM and 29 µM | > 100 µM |  | > 100 |  |  |
| Cc1cc(-c2cc(Br)cc(Br)c2)ccc1Nc1ccccc1C(=O)O [Example 84, 2-(3′,5′-Dibromo-3-methyl-biphenyl-4-ylamino)-benzoic acid] | 5 µM and 21 µM | > 100 µM |  | > 100 |  |  |
| Cc1cc(-c2ccc3c(c2)OCO3)ccc1Nc1ccccc1C(=O)O [Example 85, 2-(4-1,3-Benzodioxol-5-yl-2-methyl-phenylamino)-benzoic acid] | 8 µM and 77 µM and 45 µM | > 100 µM |  | 18 |  |  |
| O=C(O)c1ccccc1Nc1ccc(-c2ccc(Cl)cc2Cl)c(Cl)c1 [Example 86, 2-(2,2′,4′-Trichloro-biphenyl-4-ylamino)-benzoic acid] | > 10 µM and 89 µM and 37 µM | 40 µM |  | 18 |  |  |
| O=C(O)c1ccccc1Nc1ccc(-c2ccc(F)c(F)c2)c(Cl)c1 [Example 87, 2-(2-Chloro-3′,4′-difluoro-biphenyl-4-ylamino)-benzoic acid] | > 10 µM and 15 µM and 32 µM | > 100 µM |  | 50 |  |  |
| O=C(O)c1cc(C(F)(F)F)ccc1Nc1ccc(CCc2ccc(Cl)c(Cl)c2)cc1 [Example 143, 2-{4-[2-(3,4-Dichlorophenyl)-ethyl]-phenylamino}-5-trifuoromethyl-benzoic acid] |  |  | > 100 |  | > 100 | 40 µM and 30 µM |

The next lines start with results.

| IC50 [3] | IC50 [1, 5] | IC50 [4] [µM] | IC50 [2, 6] [µM] | Compound | IC50 [1] [µM] | IC50 [2] |
| --- | --- | --- | --- | --- | --- | --- |
|  | > 100 µM | 38.2 | 2 | O=C(O)c1ccccc1Nc1ccc(CCCc2ccc(N3CCCCC3)cc2)cc1 [Example 47, 2-{4-[3-(4-Piperidin-1-ylphenyl)propyl]phenylamino}benzoic acid] |  |  |
|  | 85 µM | 39.1 | 0.8 | CCCNc1ccc(CCCc2ccc(Nc3ccccc3C(=O)O)cc2)cc1 [Example 51, 2-{4-[3-(4-Propylaminophenyl)propyl]phenylamino}benzoic acid] |  |  |
|  | 75 µM | 36.5 | 0.5 | CCCNc1cccc(CCCc2ccc(Nc3ccccc3C(=O)O)cc2)c1 [Example 52, 2-{4-[3-(3-Propylaminophenyl)propyl]phenylamino}benzoic acid] |  |  |
| > 10 µM and 37 µM and 27 µM | > 100 µM |  | 10 | O=C(O)c1ccccc1Nc1ccc(-c2cccc(Br)c2)c(Cl)c1 [Example 88, 2-(3′-Bromo-2-chloro-biphenyl-4-ylamino)-benzoic acid] |  |  |
|  | > 100 µM | > 100 |  | CN(c1ccc(CCc2ccc(Cl)c(Cl)c2)cc1)c1ccccc1C(=O)O [Example 148, 2-({4-[2-(3,4-Dichloro-phenyl)-ethyl]-phenyl}-methyl-amino)-benzoic acid] |  |  |
|  | > 100 µM | 70.8 |  | O=C(O)c1ccccc1Nc1cccc(CCc2ccc(Cl)cc2)c1 [Example 154, 2-{3-[2-(4-Chlorophenyl)ethyl]phenylamino}-benzoic acid] |  |  |
|  | > 100 µM | 44.6 | 3 | O=C(O)c1ccccc1Nc1cccc(CCCc2ccc(Cl)c(Cl)c2)c1 [Example 155, 2-{3-[3-(3,4-Dichlorophenyl)propyl]phenylamino}-benzoic acid] |  |  |
|  |  | 27.8 |  | CCN(CC)c1ccc(CCCc2cccc(Nc3ccccc3C(=O)O)c2)cc1 [Example 156, 2-{3-[3-(4-Diethylaminophenyl)propyl]phenylamino}-benzoic acid] |  |  |
|  |  | 25.9 |  | CCCN(CCC)c1ccc(CCCc2cccc(Nc3ccccc3C(=O)O)c2)cc1 [Example 157, 2-{3-[3-(4-Di-n-propylaminophenyl)propyl]phenylamino}-benzoic acid] |  |  |
